Measurements reported in patent US6841657B2, “Inhibitors of HIV membrane fusion” (priority 1998, dated 2005).
Where two headings read alike, the source gives them in different places. Positions of bridges follow the written chain, without caps; N, C: chain ends. Non-standard residues stand in square brackets, D forms with d.

Tests used:
[1] = system: recombinant luciferase-expressing HIV-1; assay type: cell-based; conditions: for IC50: recombinant luciferase-expressing HIV-1, mean ± standard error, triplicate, read-out: IC50 viral entry
Method: The potency of C34 peptides in inhibiting viral infection and the HIV-1 infection inhibitory activity of the D-peptides were assayed using recombinant luciferase-expressing HIV-1 (Chen, B. K. et al., J. Virol., 68:654 (1994); Malashkevich, V. N., et al., Proc. Natl. Acad. Sci., USA, 95:9134 (1998)).
(§1) The apparent melting temperatures (Tm) were estimated from the thermal dependence of the CD signal at 222 nm. Inhibition of viral entry was measured in a cell-culture infection assay using recombinant luciferase-expressing HIV-1. Inhibition of cell-cell fusion was measured in a syncytium assay. The means and standard errors are from triplicate trials.

[2] = system: syncytia formation between Chinese hamster ovary cell expressing HXB2 envelope and HeLa-CD4-LTR-Beta-gal cells
Method: In each instance, a blocking group (e.g., an acetyl group) was present at the N terminus and a CONH2 (amide) was present at the C-terminus.
Inhibition of cell/cell fusion (i.e., syncytia formation) was assayed by co-culturing Chinese hamster ovary cell expressing HXB2 envelope (K. Kozarsky, et al., J. Acquir. Immune. Defic. Syndr., 2:163 (1989) and the HeLa-CD4-LTR-Beta-gal cells (M. Emerman, NIH AIDS Reagent program) in the presence of varying concentration of peptide. When mixed, these cells form syncytia, or multi-nucleated cells, which express β-galactosidase. Approximately twenty hours after co-culturing the cells, the monolayers were stained with 5-bromo-4-chloro-3-indolyl-β-D-galactoside to visualize the syncytia. The syncytia are visualized with a microscope and counted manually (a syncytia is scored as a fused cell containing three or more nuclei). The IC50 was calculated from fitting the data to a Langmuir equation [y=k/(1+[peptide]/IC50)+x], where y=number of syncytia and k and x are scaling constants.

N36 peptide = target: T1, N36 peptide (Human immunodeficiency virus type 1 group M subtype B, UniProt P04578); assay type: physicochemical, HIV-1; conditions: for Tm (apparent melting temperature) of N36/C34 complex: C34 peptide 10 μM + N36 10 μM, phosphate-buffered saline pH 7.0, CD signal at 222 nm; for mean residue ellipticity [θ]222 of N36/C34 complex: CD at 222 nm, 0° C., PBS pH 7.0
T1 construct: made in house; host or cells: chemical peptide synthesis
Method: CD measurements were performed in phosphate-buffered saline (50 mM sodium phosphate, 150 mM NaCl, pH 7.0) with an Aviv Model 62DS spectrometer as previously described (M. Lu, S. C. Blacklow, P. S. Kim, Nat. Struct. Biol., 2:1075 (1995)). The apparent melting temperature of each complex was estimated from the maximum of the first derivative of [θ]222 with respect to temperature.
as §1

[3] = system: hydrophobic pocket of IQN17 (gp41); assay: 1H NMR assay of binding to the IQN17 hydrophobic pocket; design: species or system HIV-1; conditions: 1:1 complex with IQN17, 25° C., 100 mM NaCl, 50 mM sodium phosphate pH 7.5, D2O
Source text: NMR experiments were used to assay the binding of each D-peptide to IQN17. The single tryptophan residue of IQN17 (denoted Trp-571) provides an excellent probe of specific binding to the hydrophobic pocket of gp41. […] To test a compound for binding to the gp41 pocket, two one-dimensional ^1H NMR measurements were made on samples in deuterated buffers. First, a reference (control) spectrum of IQN17 was taken, identifying the Trp571 chemical shifts in the unbound form. A second spectrum was acquired on a sample containing both IQN17 and the compound in question. An optional third spectrum of the D-peptide (or other small molecule, or mix of molecules) was also taken. ^1H NMR experiments were performed on a Bruker AMX 500 spectrometer. Data was processed in Felix 98.0 (MSI) on Silicon Graphics computers, and all spectra were referenced to DSS. All experiments were performed at 25° C. in 100 mM NaCl, 50 mM sodium phosphate (pH 7.5). All buffers used were >99.7% D2O, to remove overlapping resonances from exchangeable backbone and side chain protons. Solute concentrations ranged from 0.3-1.0 mM for individual peptides, 0.8-1.0 mM for 1:1 commplexes of IQN17 with each D-peptide.
Simple binding of two or more components is expected to result both in broader peaks (due to the increased size of the complex) and in changes in chemical shifts (due to the different chemical environments experienced by nuclei in free and bound forms). Specific binding to the hydrophobic pocket is indicated by a change in the Trp-571 chemical shifts, as well as by a broadening of peaks. Binding can also be indicated by similar changes in the chemical shifts and peak widths of the molecule (peptides and small organic molecules, for example) assayed. […] All IQN17/D-peptide complexes studied gave similar results, though varying in the degree of chemical shift dispersion (FIG. 9B). Thus, binding was indicated in all cases.
To confirm that the strongly upfield-shifted peaks all correspond to a single sidechain (almost certainly Trp-571), two-dimensional NMR (TOCSY) experiments were performed on each of the IQN17/D-peptide complexes. As expected, the TOCSY experiments indicate that in each complex, the strongly upfield-shifted resonances all belong to the same aromatic side chain, identified as a group of four scalar-coupled protons. For several of the complexes studied, NOESY experiments also indicate contact between this sidechain and other (unassigned) aromatic groups, as expected from the IQN17/D10pep1 structure. Not all of the potential NOE crosspeaks could be resolved, due to intense spectral overlap in the 6.8-7.6 ppm region. 2D NOESY and TOCSY experiments as described in J. Cavanaugh, W. J. Fairbrother, A. G. Palmer, N. J. Skelton, Protein NMR Spectroscopy: Principles and Practice (1996) were performed on samples of IQN17 and of each complex, with mixing times ranging between 30-90 ms (NOESY) and 30-70 ms (TOCSY). Spectral widths of 11,111 Hz and 5555 Hz were used in the acquisition (t2) and indirect (t1) dimensions, respectively. TOCSY experiments employed the DIPSI-2rc mixing sequence (J. Cavanaugh, M. Rance, J. Magn. Reson. Serv. A., 105:328 (1993)).

[4] = read-out: IC50 cell fusion, syncytium assay, mean ± standard error, triplicate

Row | Compound | Tm (apparent melting temperature) of N36/C34 complex (N36 peptide) [°C] | mean residue ellipticity [θ]222 of N36/C34 complex (N36 peptide) | IC50 [1] [nM] | IC50 [2, 4] [nM] | other results
1 | CC(=O)N[C@H](CCCCN)C(=O)N[C@H](CCCCN)C(=O)NCC(=O)N[C@H](C)C(=O)N[C@@H]1CSSC[C@H](C(=O)N[C@H](C)C(=O)N[C@H](C)C(N)=O)NC(=O)[C@@H](CC(C)C)NC(=O)[C@@H](Cc2c[nH]c3ccccc23)NC(=O)[C@@H](C)NC(=O)[C@@H](Cc2c[nH]c3ccccc23)NC(=O)[C@@H](CCC(=O)O)NC(=O)[C@@H](Cc2c[nH]c3ccccc23)NC(=O)CNC(=O)[C@@H](CC(C)C)NC(=O)[C@@H](CC(C)C)NC(=O)[C@@H](CCC(=O)O)NC1=O [Peptide D10pep5] |  |  |  |  | inhibition of infection of cells ([1]; infectivity assay): inhibit infection of cells; IC50 ([2]; read-out: IC50 syncytia formation, D-peptide, N-terminal acetyl, C-terminal amide): ~6000 nM
2 | CC[C@H](NC(=O)[C@H](CCC(=O)O)NC(=O)[C@H](CCSC)NC(=O)[C@H](Cc1c[nH]c2ccccc12)NC(C)=O)C(=O)N[C@@H](CC(=O)O)C(=O)N[C@@H](CCCNC(=N)N)C(=O)N[C@@H](CCC(=O)O)C(=O)N[C@H](C(=O)N[C@@H](CC(N)=O)C(=O)N[C@@H](CC(N)=O)C(=O)N[C@@H](Cc1ccc(O)cc1)C(=O)N[C@H](C(=O)N[C@@H](CO)C(=O)N[C@@H](CC(C)C)C(=O)N[C@H](C(=O)N[C@@H](Cc1c[nH]cn1)C(=O)N[C@@H](CO)C(=O)N[C@@H](CC(C)C)C(=O)N[C@H](C(=O)N[C@@H](CCC(=O)O)C(=O)N[C@@H](CCC(=O)O)C(=O)N[C@@H](CO)C(=O)N[C@@H](CCC(N)=O)C(=O)N[C@@H](CC(N)=O)C(=O)N[C@@H](CCC(N)=O)C(=O)N[C@@H](CCC(N)=O)C(=O)N[C@@H](CCC(=O)O)C(=O)N[C@@H](CCCCN)C(=O)N[C@@H](CC(N)=O)C(=O)N[C@@H](CCC(=O)O)C(=O)N[C@@H](CCC(N)=O)C(=O)N[C@@H](CCC(=O)O)C(=O)N[C@@H](CC(C)C)C(=O)N[C@@H](CC(C)C)C(N)=O)[C@@H](C)CC)[C@@H](C)CC)[C@@H](C)O)[C@@H](C)CC [Trp^631→Abu] | 43 | −23.2 10^3 deg cm^2 dmol^−1 |  |  | 
3 | CC[C@H](C)[C@H](NC(=O)[C@H](CC(C)C)NC(=O)[C@H](CO)NC(=O)[C@H](Cc1c[nH]cn1)NC(=O)[C@@H](NC(=O)[C@H](CC(C)C)NC(=O)[C@H](CO)NC(=O)[C@@H](NC(=O)[C@H](Cc1ccc(O)cc1)NC(=O)[C@H](CC(N)=O)NC(=O)[C@H](CC(N)=O)NC(=O)[C@@H](NC(=O)[C@H](CCC(=O)O)NC(=O)[C@H](CCCNC(=N)N)NC(=O)[C@H](CC(=O)O)NC(=O)[C@H](C)NC(=O)[C@H](CCC(=O)O)NC(=O)[C@H](CCSC)NC(=O)[C@H](Cc1c[nH]c2ccccc12)NC(C)=O)[C@@H](C)CC)[C@@H](C)O)[C@@H](C)CC)C(=O)N[C@@H](CCC(=O)O)C(=O)N[C@@H](CCC(=O)O)C(=O)N[C@@H](CO)C(=O)N[C@@H](CCC(N)=O)C(=O)N[C@@H](CC(N)=O)C(=O)N[C@@H](CCC(N)=O)C(=O)N[C@@H](CCC(N)=O)C(=O)N[C@@H](CCC(=O)O)C(=O)N[C@@H](CCCCN)C(=O)N[C@@H](CC(N)=O)C(=O)N[C@@H](CCC(=O)O)C(=O)N[C@@H](CCC(N)=O)C(=O)N[C@@H](CCC(=O)O)C(=O)N[C@@H](CC(C)C)C(=O)N[C@@H](CC(C)C)C(N)=O [Trp^631→Ala] | 37 | −24.9 10^3 deg cm^2 dmol^−1 | 40 ± 4.3 |  | 
4 | Ac-GACDLKAKEWFWLCAA-CONH2 (Ac-G[dA][dC][dD][dL][dK][dA][dK][dE][dW][dF][dW][dL][dC][dA][dA]-NH2; disulfide 3-14 (inferred)) [Peptide D10pep4] |  |  |  |  | binding to the hydrophobic pocket of IQN17 [3]: contact the pocket with very similar binding interfaces
5 | Ac-GACSRSQPEWEWLCAA-CONH2 (Ac-G[dA][dC][dS][dR][dS][dQ][dP][dE][dW][dE][dW][dL][dC][dA][dA]-NH2; disulfide 3-14 (inferred)) [Peptide D10pep6] |  |  |  |  | binding to the hydrophobic pocket of IQN17 [3]: contact the pocket with very similar binding interfaces
6 | Ac-KKKKGACELLGWEWAWLCAA-CONH2 (Ac-KKKKG[dA][dC][dE][dL][dL]G[dW][dE][dW][dA][dW][dL][dC][dA][dA]-NH2; disulfide 7-18 (inferred); not fully specified (residues 1, 2, 3, 4); printed as Ac-KKKKGACELLGWEWAWLCAA-CONH2) [Peptide D10pep5a] |  |  |  |  | IC50 for inhibition of syncytia formation relative to parent peptide without the added lysines ([2]; two additional N-terminal lysines vs parent D-peptide): approximately 2 fold
7 | Ac-WMEFDREINNYTSLIHSLIEESQNQQEKNEQELL-NH2 [Trp^631→Phe] | 59 | −26.3 10^3 deg cm^2 dmol^−1 | 3.61 ± 0.8 | 1.6 ± 0.05 | 
8 | Ac-WMEGDREINNYTSLIHSLIEESQNQQEKNEQELL-NH2 [Trp^631→Gly] | 35 | 17.1 10^3 deg cm^2 dmol^−1 | 38 ± 6.1 | 25 ± 3.8 | 
9 | Ac-WMELDREINNYTSLIHSLIEESQNQQEKNEQELL-NH2 [Trp^631→Leu] | 50 | −26.7 10^3 deg cm^2 dmol^−1 | 5.3 ± 1 | 3.2 ± 0.1 | 
10 | Ac-WMEVDREINNYTSLIHSLIEESQNQQEKNEQELL-NH2 [Trp^631→Val] | 43 | −23.9 10^3 deg cm^2 dmol^−1 | 13 ± 12.8 | 4.5 ± 0.09 | 
11 | Ac-WMEWDAEINNYTSLIHSLIEESQNQQEKNEQELL-NH2 [Arg^633→Ala] | 65 | −30.7 10^3 deg cm^2 dmol^−1 | 2.6 ± 0.89 | 0.76 ± 0.07 | effect of mutation on inhibitory activity of C34 ([1]; HIV-1 viral entry and syncytium assays, vs wildtype C34): little effect
12 | Ac-WMEWDREANNYTSLIHSLIEESQNQQEKNEQELL-NH2 [Ile^635→Ala] | 55 | −25.9 10^3 deg cm^2 dmol^−1 | 4.1 ± 0.91 | 0.96 ± 0.12 | decrease in inhibitory activity relative to wildtype C34 ([1]; HIV-1 viral entry and syncytium assays): ~2 fold
